Values quoted from earlier work as cited in US10507188B2, “Particles containing an opioid receptor antagonist and methods of use” (priority 2008, dated 2019).

Conditions: white crystalline powder, typically the bromide salt (Mallinckrodt)

C[N+]1(CC2CC2)CCC23c4c5ccc(O)c4OC2C(=O)CCC3(O)C1C5 (stereo not shown) [MNTX, N-methylnaltrexone]
solubility in water: freely soluble in water
